Data as given in ChEMBL document CHEMBL2424642, “Heterocyclic glucocorticoid receptor modulators with a 2,2-dimethyl-3-phenyl-N-(thiazol or thiadiazol-2-yl)propanamide core” (Bioorg Med Chem Lett, 2013).

Columns and labels:
Glucocorticoid receptor [1] = target: T1, Glucocorticoid receptor (Homo sapiens, UniProt P04150); experiment: Transactivation of GR-LBD expressed in human HeLa cells co-expressing GAL4-DBD by luciferase reporter gene assay; format: cell-based
T1 sequence (P04150 whole entry): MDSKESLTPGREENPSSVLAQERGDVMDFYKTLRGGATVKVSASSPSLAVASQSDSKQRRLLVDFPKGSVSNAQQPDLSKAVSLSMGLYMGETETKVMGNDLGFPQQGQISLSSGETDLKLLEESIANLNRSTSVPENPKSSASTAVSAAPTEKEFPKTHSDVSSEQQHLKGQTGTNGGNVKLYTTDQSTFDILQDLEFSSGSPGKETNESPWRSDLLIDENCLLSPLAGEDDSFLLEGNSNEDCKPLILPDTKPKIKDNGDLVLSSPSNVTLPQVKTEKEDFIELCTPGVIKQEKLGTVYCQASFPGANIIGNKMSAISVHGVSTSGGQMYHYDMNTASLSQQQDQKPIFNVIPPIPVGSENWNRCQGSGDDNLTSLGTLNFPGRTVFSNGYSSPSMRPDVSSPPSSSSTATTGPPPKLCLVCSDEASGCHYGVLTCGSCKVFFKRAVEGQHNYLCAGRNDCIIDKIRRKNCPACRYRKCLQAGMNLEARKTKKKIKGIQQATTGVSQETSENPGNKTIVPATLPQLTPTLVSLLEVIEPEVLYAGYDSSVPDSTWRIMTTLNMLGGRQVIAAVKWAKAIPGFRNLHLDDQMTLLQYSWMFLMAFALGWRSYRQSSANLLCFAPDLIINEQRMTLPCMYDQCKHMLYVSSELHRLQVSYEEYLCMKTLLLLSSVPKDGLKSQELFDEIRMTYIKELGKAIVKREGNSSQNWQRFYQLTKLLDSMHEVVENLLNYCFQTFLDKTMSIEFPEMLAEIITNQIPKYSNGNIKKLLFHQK

Glucocorticoid receptor [2] = target: T1, Glucocorticoid receptor; experiment: Transrepression of glucocorticoid receptor in human A549 cells assessed as inhibition of PMA-induced AP-1 activity by luciferase reporter gene assay; format: cell-based
Glucocorticoid receptor [3] = target: T1, Glucocorticoid receptor; experiment: Binding affinity to glucocorticoid receptor-LBD (unknown origin) by fluorescence polarization assay
[4] = target: T2, Glucocorticoid receptor (Homo sapiens) (UniProt P04150); experiment: Transrepression of glucocorticoid receptor in human A549 cells assessed as inhibition of PMA-induced AP-1 activity by luciferase reporter gene assay relative to dexamethasone; format: cell-based
T2 sequence (whole entry): T1 sequence (P04150 whole entry)

[5] = target: T3, Glucocorticoid receptor (GR-LBD) (Homo sapiens, UniProt P04150); experiment: (§1) Transactivation of GR-LBD expressed in human HeLa cells co-expressing GAL4-DBD by luciferase reporter gene assayrelative to dexamethasone; format: cell-based; details: HeLa cells expressing GR-LBD and GAL4-DBD, read-out: Efficacy
T3 sequence (P04150 whole entry): T1 sequence (P04150 whole entry)

Glucocorticoid receptor [6] = target: T1, Glucocorticoid receptor; experiment: as §1; format: cell-based; details: hela

SMILES | EC50 (Glucocorticoid receptor [1]) [nM] | EC50 (Glucocorticoid receptor [2]) [nM] | Ki (Glucocorticoid receptor [3]) [nM] | Efficacy [4] [%] | Emax [5] [%] | Efficacy (Glucocorticoid receptor [6]) [%]
CC(C)(C(=O)Nc1nncs1)C(c1ccccc1)c1ccc2c(-c3ccc(C#N)cc3)ncn2c1 (centres undefined) | > 10000 | 140 | 2 | 37 |  | 
CC(C)(C(=O)Nc1nncs1)C(c1ccccc1)c1ccn2c(-c3ccccc3)ncc2c1 (single isomer, unassigned; enantiomer 1) [listing 1 of 2 here] | > 10000 | 1120 | 5 |  |  | 
CC(C)(C(=O)Nc1nncs1)C(c1ccccc1)c1ccc2c(-c3ccc(F)cc3F)ncn2c1 (centres undefined) | 117 | 15 | 1 | 69 | 61 | 
CC(C)(C(=O)Nc1nccs1)C(c1ccccc1)c1ccc2ncccc2c1 (centres undefined) |  | > 10000 | 85 |  |  | 
CC(C)(C(=O)Nc1nncs1)C(c1ccccc1)c1ccn2c(-c3ccccc3)ncc2c1 (centres undefined) [listing 1 of 2 here] | 2000 | 899 | 3 |  |  | 30
CC(C)(C(=O)Nc1nccs1)C(c1ccccc1)c1ccc2c(-c3ccc(F)cc3)ncn2c1 (centres undefined) [listing 1 of 2 here] |  |  |  | 66 |  | 
CC(C)(C(=O)Nc1nccs1)C(c1ccccc1)c1ccc2c(-c3ccc(F)cc3)ncn2c1 (single isomer, unassigned; enantiomer 2) [listing 1 of 2 here] | 60 | 6 | 1 |  |  | 69
CC(C)(C(=O)Nc1nncs1)C(c1ccccc1)c1ccn2c(-c3ccccc3)ncc2c1 (single isomer, unassigned; enantiomer 2) [listing 1 of 2 here] | 613 | 254 | 1 |  | 43 | 
CC(C)(C(=O)Nc1nccs1)C(c1ccccc1)c1ccc2c(-c3ccc(F)cc3F)ncn2c1 (centres undefined) | 78 | 14 | 2 | 75 | 73 | 
CC(C)(C(=O)Nc1nccs1)C(c1ccccc1)c1ccc2c(-c3ccc(F)cc3)ncn2c1 (centres undefined) [listing 2 of 2 here] | 103 | 16 | 3 |  | 74 | 
CC(C)(C(=O)Nc1nncs1)C(c1ccccc1)c1ccc2c(-c3ccc(F)cc3)ncn2c1 (single isomer, unassigned; enantiomer 2) [listing 1 of 2 here] | 118 | 24 | 2 |  |  | 65
CC(C)(C(=O)Nc1nncs1)C(c1ccccc1)c1ccn2c(-c3ccccc3)ncc2c1 (centres undefined) [listing 2 of 2 here] |  |  |  | 66 |  | 
CC(C)(C(=O)Nc1nccs1)C(c1ccccc1)c1ccc2nncn2c1 (centres undefined) |  | > 10000 |  |  |  | 
CC(C)(C(=O)Nc1nncs1)C(c1ccccc1)c1ccc2c(-c3ccc(F)cc3)ncn2c1 (centres undefined) [listing 1 of 2 here] | 262 | 36 | 3 |  | 66 | 
CC(C)(C(=O)Nc1nccs1)C(c1ccccc1)c1ccc2c(-c3cccc(C#N)c3)ncn2c1 (centres undefined) | > 10000 | 225 | 4 | 30 |  | 
CC(C)(C(=O)Nc1nccs1)C(c1ccccc1)c1ccc2cncn2c1 (centres undefined) |  | > 10000 |  |  |  | 
CC(C)(C(=O)Nc1nccs1)C(c1ccccc1)c1ccn2c(-c3ccccc3)ncc2c1 (centres undefined) [listing 1 of 2 here] |  |  |  | 70 |  | 
CC(C)(C(=O)Nc1nccs1)C(c1ccccc1)c1ccc2cnccc2c1 (centres undefined) |  | > 10000 | 15 |  |  | 
CC(C)(C(=O)Nc1nncs1)C(c1ccccc1)c1ccc2c(-c3cccc(CO)c3)ncn2c1 (centres undefined) | > 10000 | > 5000 | 5 |  |  | 

SMILES | EC50 (Glucocorticoid receptor [1]) [nM] | EC50 (Glucocorticoid receptor [2]) [nM] | Ki (Glucocorticoid receptor [3]) [nM] | Efficacy [4] [%] | Emax [5] [%] | Efficacy (Glucocorticoid receptor [6]) [%]
CC(C)(C(=O)Nc1nccs1)C(c1ccccc1)c1ccn2cncc2c1 (centres undefined) |  | 1200 | 18 | 39 |  | 
CC(C)(C(=O)Nc1nccs1)C(c1ccccc1)c1ccc2c(-c3ccc(F)cc3)ncn2c1 (single isomer, unassigned; enantiomer 1) | > 10000 | > 5000 | 4 |  |  | 
CC(C)(C(=O)Nc1nccs1)C(c1ccccc1)c1ccc2c(ccn2-c2ccc(F)cc2)c1 (centres undefined) |  | 220 |  | 60 |  | 
CC(C)(C(=O)Nc1nccs1)C(c1ccccc1)c1ccc2c(-c3ccc(F)c(Cl)c3)ncn2c1 (centres undefined) | > 10000 | 114 | 8 | 26 |  | 
CC(C)(C(=O)Nc1nccs1)C(c1ccccc1)c1ccc2c(-c3ccc(F)cc3)ncn2c1 (single isomer, unassigned; enantiomer 2) [listing 2 of 2 here] |  |  |  | 73 |  | 
CC(C)(C(=O)Nc1nncs1)C(c1ccccc1)c1ccc2c(-c3ccc(F)cc3)ncn2c1 (single isomer, unassigned; enantiomer 2) [listing 2 of 2 here] |  |  |  | 72 |  | 
CC(C)(C(=O)Nc1nncs1)C(c1ccccc1)c1ccn2c(-c3ccccc3)ncc2c1 (single isomer, unassigned; enantiomer 1) [listing 2 of 2 here] |  |  |  | 34 |  | 
CC(C)(C(=O)Nc1nccs1)C(c1ccccc1)c1cc(-c2ccc(F)cc2)c2ncccc2c1 (centres undefined) |  | > 10000 | 285 |  |  | 
CC(C)(C(=O)Nc1nncs1)C(c1ccccc1)c1ccc2c(-c3ccc(F)cc3)ncn2c1 (single isomer, unassigned; enantiomer 1) [listing 1 of 2 here] | > 10000 | 1200 | 6 |  |  | 
CC(C)(C(=O)Nc1nncs1)C(c1ccccc1)c1ccc2c(-c3ccc(F)cc3)ncn2c1 (centres undefined) [listing 2 of 2 here] |  |  |  | 68 |  | 
CC(C)(C(=O)Nc1nccs1)C(c1ccccc1)c1ccc2c(-c3ccc(C#N)cc3)ncn2c1 (centres undefined) | > 10000 | 89 | 4 | 37 |  | 
CC(C)(C(=O)Nc1nncs1)C(c1ccccc1)c1ccc2c(-c3ccc(F)c(Cl)c3)ncn2c1 (centres undefined) | > 10000 | 111 | 5 | 20 |  | 
CC(C)(C(=O)Nc1nncs1)C(c1ccccc1)c1ccc2c(-c3ccc(F)cc3)ncn2c1 (single isomer, unassigned; enantiomer 1) [listing 2 of 2 here] |  |  |  | 24 |  | 
CC(C)(C(=O)Nc1nccs1)C(c1ccccc1)c1ccn2c(-c3ccccc3)ncc2c1 (single isomer, unassigned; enantiomer 1) | > 10000 | > 2500 | 11 |  |  | 
CC(C)(C(=O)Nc1nncs1)C(c1ccccc1)c1ccc2c(-c3cccc(C#N)c3)ncn2c1 (centres undefined) | > 10000 | 1350 | 4 | 32 |  | 
CC(C)(C(=O)Nc1nccs1)C(c1ccccc1)c1ccn2c(-c3ccccc3)ncc2c1 (centres undefined) [listing 2 of 2 here] | 360 | 60 | 5 |  | 32 | 
CC(C)(C(=O)Nc1nncs1)C(c1ccccc1)c1cc(-c2ccc(F)cc2)c2ncccc2c1 (centres undefined) |  | > 10000 | 196 |  |  | 
CC(C)(C(=O)Nc1nncs1)C(c1ccccc1)c1ccn2c(-c3ccccc3)ncc2c1 (single isomer, unassigned; enantiomer 2) [listing 2 of 2 here] |  |  |  | 61 |  | 
CC(C)(C(=O)Nc1nccs1)C(c1ccccc1)c1ccc2[nH]ccc2c1 (centres undefined) |  | 230 | 7 | 61 |  | 
